In ChEMBL document CHEMBL3244272, “Folate antagonists. 15. 2,3-Diamino-6-(2-naphthylsulfonyl)quinazoline and related 2,4-diamino-6-[(phenyl and naphthyl)sulfinyl and sulfonyl]quinazolines, a potent new class of antimetabolites with phenomenal antimalarial activity” (J Med Chem, 1979):
Converted amounts (≈) assume the structure as drawn. The source made the active and inactive calls. The calls are words filed in the database; no cut-off is given here.

Tests used:
[1] = tested on: Gallus gallus; experiment: Toxicity in trophozoite-induced Plasmodium gallinaceum infected in chick assessed as death at 160 mg/kg, sc single dose measured within 48 hrs; type: organism-based; set-up: dose 160 mg/kg, route subcutaneous; conditions: chicken, in vivo
[2] = tested on: Plasmodium berghei; experiment: Antimalarial activity against trophozoite-induced Plasmodium berghei infected in mouse assessed as change in mean survival time at 20 mg/kg, sc single dose after 72 hrs of infection; type: functional; conditions: route subcutaneous
[3] = tested on: Enterococcus faecalis; experiment: Antibacterial activity against Streptococcus faecalis MGH-2 assessed as growth inhibition; type: functional
[4] = tested on: Plasmodium gallinaceum; experiment: Antimalarial activity against trophozoite-induced Plasmodium gallinaceum infected in chick assessed as mean survival time at 160 mg/kg, sc single dose (reference value: 4 days); type: functional; conditions: route subcutaneous
[5] = tested on: Shigella sonnei; experiment: Antibacterial activity against Shigella sonnei C-10 assessed as growth inhibition; type: functional
[6] = tested on: Plasmodium berghei; experiment: Antimalarial activity against trophozoite-induced Plasmodium berghei infected in mouse assessed as change in mean survival time at 10 mg/kg, sc single dose after 72 hrs of infection; type: functional; conditions: route subcutaneous
[7] = tested on: Plasmodium berghei; experiment: Antimalarial activity against trophozoite-induced Plasmodium berghei infected in mouse assessed as change in mean survival time at 40 mg/kg, sc single dose after 72 hrs of infection; type: functional; conditions: route subcutaneous
[8] = tested on: Pseudomonas aeruginosa; experiment: Antibacterial activity against Pseudomonas aeruginosa 28 assessed as growth inhibition; type: functional
[9] = tested on: Plasmodium berghei; experiment: Antimalarial activity against trophozoite-induced Plasmodium berghei infected in sc dosed mouse assessed as minimum curative dose; type: functional
[10] = tested on: Escherichia coli; experiment: Antibacterial activity against Escherichia coli Vogel assessed as growth inhibition; type: functional
[11] = tested on: Staphylococcus aureus; experiment: Antibacterial activity against Staphylococcus aureus UC-76 assessed as growth inhibition; type: functional
[12] = tested on: Plasmodium gallinaceum; experiment: Antimalarial activity against trophozoite-induced Plasmodium gallinaceum infected in chick assessed as cured at 160 mg/kg, sc single dose; type: functional, organism-based; set-up: dose 160 mg/kg
[13] = tested on: Staphylococcus aureus; experiment: Antibacterial activity against Staphylococcus aureus S18713 assessed as growth inhibition; type: functional
[14] = tested on: Gallus gallus; experiment: Toxicity in trophozoite-induced Plasmodium gallinaceum infected in chick assessed as death at 5 mg/kg, sc single dose measured within 48 hrs; type: organism-based; set-up: dose 5 mg/kg, route subcutaneous; conditions: chicken, in vivo
[15] = tested on: Gallus gallus; experiment: Toxicity in trophozoite-induced Plasmodium gallinaceum infected in chick assessed as death at 2.5 mg/kg, sc single dose measured within 48 hrs; type: organism-based; set-up: dose 2.5 mg/kg, route subcutaneous; conditions: chicken, in vivo
[16] = tested on: Plasmodium gallinaceum; experiment: Antimalarial activity against trophozoite-induced Plasmodium gallinaceum infected in chick assessed as mean survival time at 40 mg/kg, sc single dose (reference value: 4 days); type: functional; conditions: route subcutaneous
[17] = tested on: Plasmodium gallinaceum; experiment: Antimalarial activity against trophozoite-induced Plasmodium gallinaceum infected in chick assessed as mean survival time at 10 mg/kg, sc single dose (reference value: 4 days); type: functional; conditions: route subcutaneous
[18] = tested on: Plasmodium berghei; experiment: Antimalarial activity against trophozoite-induced Plasmodium berghei infected in mouse assessed as change in mean survival time at 1.25 mg/kg, sc single dose after 72 hrs of infection; type: functional; conditions: route subcutaneous
[19] = tested on: Plasmodium gallinaceum; experiment: Antimalarial activity against trophozoite-induced Plasmodium gallinaceum infected in chick assessed as cured at 2.5 mg/kg, sc single dose; type: functional, organism-based; set-up: dose 2.5 mg/kg
[20] = tested on: Plasmodium gallinaceum; experiment: Antimalarial activity against trophozoite-induced Plasmodium gallinaceum infected in chick assessed as mean survival time at 2.5 mg/kg, sc single dose (reference value: 4 days); type: functional; conditions: route subcutaneous
[21] = tested on: Plasmodium berghei; experiment: Antimalarial activity against trophozoite-induced Plasmodium berghei infected in mouse assessed as change in mean survival time at 2.5 mg/kg, sc single dose after 72 hrs of infection; type: functional; conditions: route subcutaneous
[22] = tested on: Plasmodium gallinaceum; experiment: Antimalarial activity against trophozoite-induced Plasmodium gallinaceum infected in chick assessed as mean survival time at 5 mg/kg, sc single dose (reference value: 4 days); type: functional; conditions: route subcutaneous
[23] = tested on: Plasmodium berghei; experiment: Antimalarial activity against trophozoite-induced Plasmodium berghei infected in mouse assessed as change in mean survival time at 5 mg/kg, sc single dose after 72 hrs of infection; type: functional; conditions: route subcutaneous
[24] = tested on: Gallus gallus; experiment: Toxicity in trophozoite-induced Plasmodium gallinaceum infected in chick assessed as death at 20 mg/kg, sc single dose measured within 48 hrs; type: organism-based; set-up: dose 20 mg/kg, route subcutaneous; conditions: chicken, in vivo
[25] = tested on: Gallus gallus; experiment: Toxicity in trophozoite-induced Plasmodium gallinaceum infected in chick assessed as death at 40 mg/kg, sc single dose measured within 48 hrs; type: organism-based; set-up: dose 40 mg/kg, route subcutaneous; conditions: chicken, in vivo
[26] = tested on: Plasmodium gallinaceum; experiment: Antimalarial activity against trophozoite-induced Plasmodium gallinaceum infected in chick assessed as mean survival time at 20 mg/kg, sc single dose (reference value: 4 days); type: functional; conditions: route subcutaneous
[27] = tested on: Gallus gallus; experiment: Toxicity in trophozoite-induced Plasmodium gallinaceum infected in chick assessed as death at 10 mg/kg, sc single dose measured within 48 hrs; type: organism-based; set-up: dose 10 mg/kg, route subcutaneous; conditions: chicken, in vivo
[28] = tested on: Gallus gallus; experiment: Toxicity in trophozoite-induced Plasmodium gallinaceum infected in chick assessed as death at 80 mg/kg, sc single dose measured within 48 hrs; type: organism-based; set-up: dose 80 mg/kg, route subcutaneous; conditions: chicken, in vivo
[29] = tested on: Plasmodium gallinaceum; experiment: Antimalarial activity against trophozoite-induced Plasmodium gallinaceum infected in chick assessed as cured at 5 mg/kg, sc single dose; type: functional, organism-based; set-up: dose 5 mg/kg
[30] = tested on: Plasmodium gallinaceum; experiment: Antimalarial activity against sporozoite-induced Plasmodium gallinaceum infected in chick assessed as change in cured at 60 mg/kg, sc single dose; type: functional; conditions: route subcutaneous
[31] = tested on: Plasmodium gallinaceum; experiment: Antimalarial activity against sporozoite-induced Plasmodium gallinaceum infected in chick assessed as change in cured at 30 mg/kg, sc single dose; type: functional; conditions: route subcutaneous
[32] = tested on: Gallus gallus; experiment: Toxicity in trophozoite-induced Plasmodium gallinaceum infected in chick assessed as death at 30 mg/kg, sc single dose measured within 48 hrs; type: organism-based; set-up: dose 30 mg/kg, route subcutaneous; conditions: chicken, in vivo
[33] = tested on: Plasmodium gallinaceum; experiment: Antimalarial activity against trophozoite-induced Plasmodium gallinaceum infected in chick assessed as mean survival time at 60 mg/kg, sc single dose (reference value: 3.6 days); type: functional; conditions: route subcutaneous
[34] = tested on: Plasmodium gallinaceum; experiment: Antimalarial activity against sporozoite-induced Plasmodium gallinaceum infected in chick assessed as change in cured at 15 mg/kg, sc single dose; type: functional; conditions: route subcutaneous
[35] = tested on: Plasmodium berghei; experiment: Antimalarial activity against trophozoite-induced Plasmodium berghei infected in mouse assessed as change in mean survival time at 80 mg/kg, sc single dose after 72 hrs of infection; type: functional; conditions: route subcutaneous
[36] = tested on: Plasmodium gallinaceum; experiment: Antimalarial activity against trophozoite-induced Plasmodium gallinaceum infected in chick assessed as mean survival time at 30 mg/kg, sc single dose (reference value: 3.6 days); type: functional; conditions: route subcutaneous
[37] = tested on: Plasmodium gallinaceum; experiment: Antimalarial activity against trophozoite-induced Plasmodium gallinaceum infected in chick assessed as mean survival time at 120 mg/kg, sc single dose (reference value: 3.6 days); type: functional; conditions: route subcutaneous

COc1ccc(S(=O)(=O)c2ccc3nc(N)nc(N)c3c2)cc1
Activity [1]: Toxic | MST [2]: 11.4 days | MIC [3]: < 0.25 µg/mL | MST [4]: 14.8 days | MIC [5]: 2.5 µg/mL (≈ 7.57 µM) | MST [6]: 4.9 days | MST [7]: 15.9 days | MIC [8]: > 25 µg/mL | MCD [9]: 20 mg/kg | MIC [10]: 2.5 µg/mL (≈ 7.57 µM) | MIC [11]: 2.5 µg/mL (≈ 7.57 µM) | Activity [12]: Active | MIC [13]: 2.5 µg/mL (≈ 7.57 µM)

Nc1nc(N)c2cc([S+]([O-])c3ccc(Cl)cc3)ccc2n1 (centres undefined)
Activity [14]: Toxic | Activity [1]: Toxic | Activity [15]: Toxic | MIC [3]: < 0.25 µg/mL | MST [16]: 27.5 days | MST [17]: 23 days | MIC [5]: 20 µg/mL (≈ 62.7 µM) | MST [6]: 7.3 days | MST [18]: 4.2 days | Activity [19]: Active | MST [20]: 4 days | MST [21]: 6 days | MST [22]: 15.8 days | MST [23]: 4.8 days | MIC [8]: > 25 µg/mL | Activity [24]: Toxic | Activity [25]: Toxic | MST [26]: 23 days | MCD [9]: 40 mg/kg | MIC [10]: 1.5 µg/mL (≈ 4.71 µM) | MIC [11]: < 0.25 µg/mL | MIC [13]: < 0.25 µg/mL | Activity [27]: Toxic | Activity [28]: Toxic | Activity [29]: Active

CC1(C)N=C(N)N=C(N)N1c1ccc(Cl)cc1.Cl [CHLORCYCLOGUANIL HYDROCHLORIDE]
MST [2]: 7.9 days | MST [6]: 4.9 days | MST [7]: 13.4 days | MST [30]: 0.4 days | MST [31]: 2.3 days | Activity [32]: Toxic | MST [33]: 18.7 days | MST [34]: 0 days | MST [35]: 21.6 days | MST [36]: 15.3 days | MST [37]: 22.7 days
